US20210115000A1, “NILE RED DERIVATIVES FOR IMPROVED RATIOMETRIC IMAGING FOR NERVE SPECIFIC CONTRAST” (Oregon Health & Sciences University, priority 2018, published 2021)
“Also recorded” adds a separate entry of the source.

Assays:
[1] = test system: nerve, adipose and muscle tissue at nerve sites; experiment: In vivo co-staining with Oxazine 4, ratiometric imaging and ROC curve analysis; parameters: species or system male CD-1 mice; conditions: for ROC AUC of nerve-to-muscle contrast, change: 30 min after staining compared to immediately following staining
From the text: In vivo images were acquired using a previously published, custom-built small animal fluorescence imaging system, described briefly here.^27 Fluorescent images were obtained using a Qimaging EXi Blue monochrome camera (Surrey, British Columbia, CA) with a removable Bayer mask for collection of co-registered color and fluorescence images. A Photofluor II broad band light source (89 North) was expanded onto the surgical field through a liquid light guide and used unfiltered for white light illumination. Nile Red and NR5 were excitated using a 545 t 12.5 nm bandpass filter, while fluorescence emission images were collected with a 605±35 nm bandpass filter. Oxazine 4 (Exciton, West Chester, Ohio) was used for nerve and adipose co-staining and ratiometic imaging studies. Oxazine 4 was excited using a 620±30 nm bandpass filter, while fluorescence emission images were collected through a 700±37.5 nm bandpass filter. Approval for the use of animals in the study was obtained from the Institutional Animal Care and Use Committee (IACUC) at Oregon Health and Science University (OHSU). In vivo staining studies were carried out on male CD-1 mice using an optimized direct/topical administration protocol.^2 Staining was performed concurrently on no more than two nerve sites (sciatic nerve or brachial plexus) per mouse. Nile Red and all Nile Red derivatives were formulated in a previously published co-solvent formulation (10% DMSO, 5% Kolliphor, 63.75% serum and 21.25% PBS^14) at a final concentration of 100 μM. Each formulated fluorophore was incubated for 5 minutes on the nerve site (n=4 nerve sites/fluorophore), followed by 9 short flushes with PBS. The nerve site was then incubated with blank co-solvent not containing fluorophore for 5 minutes, followed again by 9 short flushes with PBS. In vivo co-staining was completed with (1) Nile Red and Oxazine 4 as well as (2) NR5 and Oxazine 4. For these studies, co-solvent formulated Oxazine 4 ([…]) was incubated on the nerve site for 5 minutes followed by 9 short flushes with PBS. The co-solvent formulated Nile Red or NR5 (100 μM) was then incubated on the nerve site for 5 minutes and also followed by 9 short flushes with PBS. Co-registered (1) Nile Red and Oxazine 4 or (2) NR5 and Oxazine 4 images were collected from n=4 nerve sites per groups (1) and (2). Ratiometric images were calculated and quantified using region of interest analysis on the white light images to identify the nerve, adipose and muscle tissue types. Due to the known cross talk of Oxazine 4 into the Nile Red channel,^2 the Oxazine 4 image was subtracted from the Nile Red or NR5 image resulting in an image of only adipose. The ratiometric images were then calculated as the Oxazine 4 image minus the corrected Nile Red or NR5 image divided by the corrected Nile Red or NR5 image. Receiver Operator Characteristic (ROC) curve analysis was performed to assess differences between the ratiometric images, where the area under the curve (AUC) was used as the metric to differentiate between groups (1) and (2) using custom written MatLab code.^28

[2] = Spectroscopic analysis: absorbance, emission and quantum yield of Nile Red derivatives; type: physicochemical
Method: Tandem liquid chromatography mass spectroscopy (LCMS) analysis (Agilent 1260 LC system with a 6224 time of flight (TOF) MS, Agilent, Santa Clara, Calif.) was performed using a 2.7 micron C18 column (4.6×50 mm, Agilent). High performance liquid chromatography (HPLC) purification (Agilent 1260 system with a preparative pump) was performed using a 5 micron C18 column (21.2×150 mm, Agilent). For both HPLC and LCMS, the mobile phase consisted of HPLC grade acetonitrile and water, treated with 0.1% formic acid. Spectroscopic analysis was performed on a Spectramax M5 spectrometer (Molecular Devices, Sunnyvale, Calif.) using a quartz cuvette with a 1 cm pathlength. Quantum yield was calculated according to equation (1).
Where Ø is the quantum yield, F is the integrated fluorescence intensity, f is the absorbance at the excitation wavelength and n is the refractive index of the solvent. S refers to the quantum yield standard (Rhodamine B)^25 and X refers to the unknown sample.

absorbance maximum ([2]; in toluene) | emission maximum ([2]; in toluene) | SMILES | ROC AUC of nerve-to-muscle contrast, change [1] | Max Abs ([2]; in DMSO) | Max Em ([2]; in DMSO) | z-score, nerve-to-muscle contrast ([1]; NR5 and oxazine 4 costaining versus oxazine 4 alone, 30 min after staining) | z-score, nerve-to-muscle contrast ([1]; NR5 costaining with oxazine 4 compared to Nile Red costaining with oxazine 4, 30 min after staining) | z-score, nerve-to-adipose contrast ([1]; NR versus NR5 costaining with oxazine 4, 30 min after staining) | z-score, nerve-to-adipose contrast ([1]; NR versus NR5 costaining with oxazine 4, first time point (immediately after staining implied)) | z-score, nerve-to-muscle contrast ([1]; NR versus NR5 costaining with oxazine 4, immediately following staining) | ROC AUC nerve contrast ([1]; costaining with Oxazine 4, 30 minutes post direct administration) | ROC AUC nerve contrast ([1]; costaining with Oxazine 4, immediately following direct administration) | z-score, nerve-to-adipose contrast ([1]; oxazine 4 only staining versus NR5 costaining with oxazine 4, 30 min after staining) | z-score, nerve-to-adipose contrast ([1]; oxazine 4 only staining versus NR5 costaining with oxazine 4, first time point (immediately after staining implied)) | z-score, nerve-to-muscle contrast ([1]; oxazine 4 only staining versus NR5 costaining with oxazine 4, immediately following staining) | Stokes Shift ([2]; in DMSO) | QY (quantum yield) ([2]; in DMSO, standard Rhodamine B)
520 nm | 570 nm | CCN(CC)c1ccc2nc3c4ccccc4c(=O)cc-3oc2c1 [Nile Red] | substantial drop in AUC value | 550 nm | 630 nm |  |  |  |  |  |  |  |  |  |  |  | 
 |  | CCN(CC)c1ccc2nc3c4ccc(-c5ccc(C#N)cc5)cc4c(=O)cc-3oc2c1 [NR5, 4-(9-(diethylamino)-5-oxo-5H-benzo[a]phenoxazin-3-yl)benzonitrile] | little change | 560 nm | 640 nm | -21.32 | 99.96 | 98.20 | 25.26 | 21.87 | improved nerve to adipose and nerve to muscle contrast ratios; also recorded: significantly higher nerve-to-adipose contrast | slightly improved values | 16.12 | 28.63 | 15.22 | 80 nm | 0.54
